Results published in publication PMC6080930 (The Journal of Cell Biology, 2018).

Target: adenylyl cyclase A (ACA); ACA-YFP (Dictyostelium discoideum, UniProt Q03100)
Details: labelled compound; 2 mM MnSO4, 2 mM MgSO4, Tris pH 8.0, 22°C, 10 min; lysed EVs

adenylyl cyclase A (ACA); ACA-YFP, sequence (Q03100 whole entry): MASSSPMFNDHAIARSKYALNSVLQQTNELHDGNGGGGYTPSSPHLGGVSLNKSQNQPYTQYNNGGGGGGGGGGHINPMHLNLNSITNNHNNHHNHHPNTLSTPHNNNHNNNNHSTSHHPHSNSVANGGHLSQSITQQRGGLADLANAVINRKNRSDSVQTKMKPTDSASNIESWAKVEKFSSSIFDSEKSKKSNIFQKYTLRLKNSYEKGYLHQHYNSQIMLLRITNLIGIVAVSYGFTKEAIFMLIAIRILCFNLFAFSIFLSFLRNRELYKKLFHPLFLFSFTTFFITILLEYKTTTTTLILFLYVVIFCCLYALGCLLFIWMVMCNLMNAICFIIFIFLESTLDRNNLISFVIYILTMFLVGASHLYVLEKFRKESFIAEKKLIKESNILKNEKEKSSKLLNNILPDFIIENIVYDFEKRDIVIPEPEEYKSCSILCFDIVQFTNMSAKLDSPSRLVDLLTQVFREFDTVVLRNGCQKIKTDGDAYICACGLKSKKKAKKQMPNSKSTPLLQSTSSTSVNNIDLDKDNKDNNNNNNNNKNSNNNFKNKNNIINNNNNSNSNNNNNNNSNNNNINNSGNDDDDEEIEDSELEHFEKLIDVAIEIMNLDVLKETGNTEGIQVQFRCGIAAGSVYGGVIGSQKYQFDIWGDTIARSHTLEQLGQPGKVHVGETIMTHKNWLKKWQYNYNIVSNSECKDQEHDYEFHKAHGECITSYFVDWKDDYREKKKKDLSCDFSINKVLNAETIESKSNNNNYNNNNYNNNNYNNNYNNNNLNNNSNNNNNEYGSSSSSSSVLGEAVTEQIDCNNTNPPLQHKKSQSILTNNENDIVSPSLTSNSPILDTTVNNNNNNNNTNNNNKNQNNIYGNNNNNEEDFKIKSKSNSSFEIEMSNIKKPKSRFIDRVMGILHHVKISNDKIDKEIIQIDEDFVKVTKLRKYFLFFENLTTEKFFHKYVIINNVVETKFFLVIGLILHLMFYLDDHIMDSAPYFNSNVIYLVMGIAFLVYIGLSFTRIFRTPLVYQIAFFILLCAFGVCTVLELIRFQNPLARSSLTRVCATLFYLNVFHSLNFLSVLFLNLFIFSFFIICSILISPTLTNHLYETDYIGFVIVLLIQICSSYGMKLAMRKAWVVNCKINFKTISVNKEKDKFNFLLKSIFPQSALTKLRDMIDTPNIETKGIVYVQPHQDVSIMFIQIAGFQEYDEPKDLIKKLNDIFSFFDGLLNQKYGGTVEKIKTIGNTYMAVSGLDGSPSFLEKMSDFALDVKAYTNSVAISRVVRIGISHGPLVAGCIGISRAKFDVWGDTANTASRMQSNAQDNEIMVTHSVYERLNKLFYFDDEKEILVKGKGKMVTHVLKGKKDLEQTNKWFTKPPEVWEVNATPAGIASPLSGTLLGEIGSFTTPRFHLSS

Nc1ncnc2c1ncn2[C@@H]1O[C@H](COP(=O)(O)OP(=O)(O)OP(=O)(O)O)[C@@H](O)[C@H]1O [ATP]
conversion of [32P]ATP to [32P]cAMP, Dowex/alumina columns: MnSO4 induced an increase in adenylyl cyclase activity in ACA-YFP/aca^− EVs
